# Columns and labels:
# [1] = test system: capillary circulation of the skin; test: Laser Doppler circulation study in five human subjects (Example 8); type: in vivo; settings: positive control formulation containing 0.1% methyl nicotinate
# Source text: This example illustrates delivery of nitric oxide formulations to five human subjects, using procedures and formulations similar to those discussed in Example 5. Each person served as their own control for the testing. A Moor Instruments Laser Doppler was used to determine circulation. […] The formulations used produce positive, almost immediate results when applied to the skin which, in these studies, was manifested by vasodilatation of the cutaneous vascular system.
# For each subject, the following creams were applied: a negative control formulation (containing no NO), 0.010 gram of a 10,000 ppm NO formulation, 0.020 gram of a 10,000 ppm NO formulation, and a positive control formulation containing 0.1% methyl nicotinate. The formulations were prepared using procedures similar to those discussed in Example 1.
# [2] = test system: micro-capillary blood flow to skin; test: Laser Doppler capillary blood flow in humans, 10,000 ppm NO in closed Hilltop chamber (Example 5); type: in vivo, human; settings: applied to the skin at 1/10% in alcohol
# Source text: The formulation used in these studies contained nitric oxide dispersed in a lipid matrix. […] Nitric oxide is a very rapid acting molecule, and these studies used a system that employed laser Doppler with a covered chamber. The formulation was placed into the chamber and then attached to the skin by an adhesive layer on the covering. This provided a stable measuring device as determined by multiple normal evaluations of the capillary blood flow without treatment of nitric oxide.
# A known positive control, methyl nicotinate, was applied to the skin at a concentration of 1/10% in alcohol. […] The vascular dynamics are such that when the blood vessels dilate physical parameters follow Bernoulli's law. […] The laser Doppler device accurately measured these parameters.
# In these studies, the participants were healthy females aged 30 to 55 years. They were in good health as determined by the medical history and were not taking any prescription medications. All study participants read and signed the informed consent statement prior to any study procedures being performed. […]
# A Moor Instruments DRT4 Laser Doppler Blood Flow Monitor (Devon, England) was used in these studies. The laser Doppler technique measured blood flow in the microcapillaries of the skin that are close to the skin surface and the blood flow in underlying arterioles and venules that help to regulate skin temperature. […]
# [3] = Nitric oxide absorption by carriers (weight gain on bubbling NO gas); type: physicochemical; settings: NO gas bubbled 40 hr, 25 ° C.
# Description: This example illustrates one technique for preparing a composition in accordance with one embodiment of the invention. An accurate amount of a carrier (HNC 167-62) (see below) was introduced into a system. The carrier weight used in these experiments was approximately 250 g and the vessel size was 500 ml. The vessel was equipped with a mechanical stirrer, gas inlet, and gas outlet and was previously purged with argon for about an hour. The temperature of the carrier was kept at about 25-30° C. NO gas regulated at 5 psi (1 psi is about 6,900 Pa) and was then introduced at a controlled rate of about 1 bubble/s with continuous stirring. […] After 6 hours, the weight of the carrier had increased by 0.15%, by 12 hours by 0.25%, and by 24 hours by 0.56%. These increases in weight were believed to be significant considering the relative small molecular weight of NO versus the carrier. […] The carrier also can solidify upon cooling if the carrier is initially a solid at lower temperature.
# Each carrier was taken in a 500 mL three necked flask equipped with a mechanical stirrer, gas inlet and a gas outlet. The system was purged with argon for one hour at room temperature (25° C.). Then nitric oxide gas was bubbled into the system. Then, nitric oxide gas was bubbled through carrier for stipulated amount of time. The changes in weight and color were noted. […]
# [4] = Carrying of TRH peptide by carrier formulations; type: physicochemical; settings: TRH concentration of 5.0 mg/cc
# Source text: Any of the above compositions are effective as carriers for peptides and nitric oxide.
compound,measurement,setting,value
COC(=O)c1cccnc1 [methyl nicotinate],vasodilatation,[1],vasodilatation was observed
same,laser Doppler response to positive control,[2],rapid response typical of the vasodilator
"OCCCO [1,3-Propanediol, 1,3-propanediol]",% Wt. gain,[3],0.09%
same,Wt. Gain g,[3],0.16 g
"NC(=O)[C@@H]1CCCN1C(=O)[C@H](Cc1cnc[nH]1)NC(=O)[C@@H]1CCC(=O)N1 [TRH, thyrotropin-releasing hormone]","carrying of the peptide by formulations HNC 156-43, HNC 156-50, HNC 156-47, HNC 159-136",[4],effectively carried
